Data on 2 compounds can be found in publication PMC10823514, “Target Identification of a Class of Pyrazolone Protein Aggregation Inhibitor Therapeutics for Amyotrophic Lateral Sclerosis” (ACS Central Science, 2023).

What all share (assay type): binding
For one test, the target named is T1, 14-3-3-G (Homo sapiens, UniProt P61981).
T1 construct: purchased Abchem (so in the source)
T1 sequence (P61981 1-247): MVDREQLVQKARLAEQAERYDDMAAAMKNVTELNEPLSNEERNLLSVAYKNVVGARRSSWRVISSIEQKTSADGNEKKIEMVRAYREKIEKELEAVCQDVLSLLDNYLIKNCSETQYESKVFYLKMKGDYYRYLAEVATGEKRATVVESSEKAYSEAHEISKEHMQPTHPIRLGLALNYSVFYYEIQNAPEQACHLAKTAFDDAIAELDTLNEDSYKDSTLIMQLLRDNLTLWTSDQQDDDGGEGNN
Put plainly: Fluorescent thermal shift assay (FTSA) with 14-3-3-G. The conditions noted are these: 0 and 100 μM P2. As to the method: His-tagged 14-3-3-E, B, and H plasmids were purchased from Addgene (plasmid ID# 31562, 39128, and 38814, respectively). E. coli (BL21) were transformed with extracted plasmids via heat shock and plated on selected media. Individual colonies were selected, grown, and sequenced to confirm gene presence. 1 L cultures were grown to an OD600 of 0.6 at 37 °C and 220 rpm. Protein expression was induced with 1 mM IPTG and expressed for 12 h at 100 rpm and room temperature (approximately 25 °C). Cells were spun down at 4000 rpm for 15 min at 4 °C and resuspended in lysis buffer containing 50 mM Tris (7.4), 150 mM NaCl, 0.08% DDM, 5 mM imidazole, and 5% glycerol (with an EDTA-free complete mini protease inhibitor cocktail). Cells were lysed via sonication, and the lysate was separated from cell debris by centrifugation at 15,000 rpm, 4 °C, for 45 min. The His-tagged protein was purified using QIAGEN Ni-NTA superflow columns, and the His-tag was removed with TEV protease. His-tag-removed proteins were further purified by size exclusion chromatography. His tag removal and size exclusion chromatography purification were done at the Northwestern University Protein Production core. […]
All of the FTSA experiments were conducted in HEPES buffer (60 mM HEPES, 150 mM NaCl, pH 7.4). […] The fluorescence was measured on a Bio-Rad CFX384 real-time PCR instrument.

The target of the next test is T2, 14-3-3-E (Homo sapiens, UniProt P62258).
T2 construct: His-tag (TEV-cleavable) (cleaved yes); host or cells: E. coli (BL21)
T2 sequence (P62258 1-255): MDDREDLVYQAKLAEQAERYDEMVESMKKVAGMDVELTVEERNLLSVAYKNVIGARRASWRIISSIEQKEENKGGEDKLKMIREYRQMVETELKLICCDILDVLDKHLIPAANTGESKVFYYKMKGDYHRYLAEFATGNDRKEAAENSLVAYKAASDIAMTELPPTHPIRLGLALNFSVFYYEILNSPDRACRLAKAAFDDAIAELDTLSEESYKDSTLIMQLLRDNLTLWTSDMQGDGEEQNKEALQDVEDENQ
Put plainly: Fluorescent thermal shift assay (FTSA) with 14-3-3-E. The conditions noted are these: for Tm shift (ΔTm): SYPRO orange. As to the method:
His-tagged 14-3-3-E, B, and H plasmids were purchased from Addgene (plasmid ID# 31562, 39128, and 38814, respectively). E. coli (BL21) were transformed with extracted plasmids via heat shock and plated on selected media. Individual colonies were selected, grown, and sequenced to confirm gene presence. 1 L cultures were grown to an OD600 of 0.6 at 37 °C and 220 rpm. Protein expression was induced with 1 mM IPTG and expressed for 12 h at 100 rpm and room temperature (approximately 25 °C). Cells were spun down at 4000 rpm for 15 min at 4 °C and resuspended in lysis buffer containing 50 mM Tris (7.4), 150 mM NaCl, 0.08% DDM, 5 mM imidazole, and 5% glycerol (with an EDTA-free complete mini protease inhibitor cocktail). Cells were lysed via sonication, and the lysate was separated from cell debris by centrifugation at 15,000 rpm, 4 °C, for 45 min. The His-tagged protein was purified using QIAGEN Ni-NTA superflow columns, and the His-tag was removed with TEV protease. His-tag-removed proteins were further purified by size exclusion chromatography. His tag removal and size exclusion chromatography purification were done at the Northwestern University Protein Production core. 14-3-3-Q and 14-3-3-G proteins were purchased from Abchem (catalog numbers ab85270 and ab53869, respectively).
All of the FTSA experiments were conducted in HEPES buffer (60 mM HEPES, 150 mM NaCl, pH 7.4). A DMSO balanced 8-point dilution series of the compound in HEPES buffer was prepared in a 96-well assay plate (200, 100, 50, 25, 12.5, 6.25, 3.125, and 0 μM). Then, a 5 μL volume of the dilution series was transferred to a 384-well PCR plate using a multichannel pipet, and the plate was centrifuged at 1000 rpm for 2 min (the plate was covered with an adhesive aluminum seal). The protein sample was premixed at a concentration of 0.04 μg/μL with a 5X concentration of SYPRO orange in HEPES buffer, and a 5 μL aliquot was added to the compound wells. The plate was covered with an optical adhesive seal and was shaken for 2 min, followed by centrifugation at 1000 rpm for 2 min. The thermal scan was performed from 20 to 90 °C with a temperature gradient of 0.5 °C/min. The fluorescence was measured on a Bio-Rad CFX384 real-time PCR instrument.

Test [1] concerns the target T3, 25 kDa protein band in PC12 SOD1^G93A cells (Rattus norvegicus, UniProt P62260).
T3 construct: we identified a 25 kDa covalently modified protein band in the PC12 SOD1^G93A cell line; endogenous in cells; host or cells: PC12-SOD1^G93A cells (live-cell UV photolabeling, then lysis)
T3 sequence (P62260 1-255): T2 sequence (P62258 1-255)
The test is described as follows: Live-cell photoaffinity labeling: concentration-dependent covalent modification of the 25 kDa band by PRAPP (in-gel fluorescence, Hill fit). To be noted: all three treatment scenarios. How it is done:
PC12-SOD1^G93A cells were cultured and grown to 90% confluency (in 6-well plates) and washed once with PBS followed by the addition of serum medium containing the appropriate analyte at the indicated concentrations. Three incubation scenarios were studied (at 37 °C): Scenario 1) 12 h preincubation with PRAPP in the absence of MG-132; Scenario 2) 12 h preincubation with PRAPP in the absence of MG-132 followed by an additional 24 h incubation (control); and Scenario 3) 12 h preincubation with PRAPP followed by the addition of MG-132 (100 nM) and an additional 24 h incubation. After incubation, the medium was discarded and cells were washed with PBS (1 × 300 μL). […] Each lysate was centrifuged at 4 °C for 5 min at 13,000 rpm, and the resulting supernatant was concentrated with a centrifugal filter (Amicon Ultra Centrifugal Filters 3K cutoff, Millipore), normalized to 1.0 mg/mL by the Bradford assay, and analyzed immediately or stored at −80 °C for subsequent analysis.
In a darkened (wrapped with aluminum foil) Eppendorf tube, each lysate (30 μL [30 μg]) was incubated with 10 μL of the freshly prepared “click” premix containing CuSO4 (5 mM), sodium ascorbate (5 mM), TBTA (200 μM), and N3–Alexa-647 (50 μM) were added to PBS (50 mM, pH 7.4). […] In-gel fluorescence was monitored (excitation λ = 635 nm; emission λ = 670 nm) using a Typhoon 9400 (GE Healthcare) fluorimager. […]

Regarding `O=c1cc(COc2cc(Cl)cc(Cl)c2)[nH][nH]1` [P2], the “binding (Tm shift)” value at 14-3-3-G is “no binding”. Further, at 14-3-3-E, the “Tm shift (ΔTm)” value turned out to be 3.2 °C. Moreover, at 14-3-3-E (fit of ΔTm versus concentration, n = 2, read-out: Kd^app), the Kd was 2850 nM.

In the case of `C#CCN(Cc1cc(=O)[nH][nH]1)Cc1c(F)c(F)c(N=[N+]=[N-])c(F)c1F` [PRAPP, 5-(((4-Azido-2,3,5,6-tetrafluorobenzyl)(prop-2-yn-1-yl)amino)methyl)-1,2-dihydro-3H-pyrazol-3-one], the “concentration of saturation binding kinetics” value in test [1] is recorded as “around 30 μM”. For the same compound, at 14-3-3-E, the “Tm shift (ΔTm)” value worked out at 2.5 °C.
